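48-hour exposure; five concentrations; linearly interpolated endpoints. GI50 = concentration required for 50% inhibition of growth. Definition used: TGI = concentration required for complete inhibition of growth.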 Bounds are passed on as bounds.

In general, GI50 refers to the concentration giving 50% growth inhibition. Usually TGI stands for the concentration giving total growth inhibition.

What all share (test): DTP human tumour cell line panel, 48 h
Test [1] deals with A498 renal.
For test [2], the system named is A549 NSCLC.
The subject of test [3] is BT-549 breast.
The subject of test [4] is EKVX NSCLC.
The test system of test [5] is HCC-2998 colon.
Test [6] deals with HOP-62 NSCLC.
In test [7] the test system is LOX IMVI melanoma.
The subject of test [8] is NCI/ADR-RES ovarian.
Test [9] relates to OVCAR-3 ovarian.
Test [10] deals with OVCAR-4 ovarian.

Take `COc1ccc(-c2[nH]c3ccccc3c2C=C(C#N)C#N)cc1`: the 50% growth inhibitory concentration (GI50) in test [1] was 0.294 µM; in [2], 0.694 µM; in test [3] it was 0.769 µM; in [4] it was 648 nM; in test [5] it was 0.67 µM; in test [6], 0.962 µM. Besides, the GI50 was 1730 nM in test [7], 0.335 µM in [8], 0.263 µM in test [9] and 0.797 µM in test [10]. In addition, the concentration for total growth inhibition (TGI) in test [1] is 2.12 µM; in test [2], greater than 100 µM; in test [3] it was greater than 100 µM; in test [4], greater than 100 µM; in test [5], 3.16 µM; in test [6] it was 21.8 µM. For the same compound, the TGI in test [7] was greater than 100 µM; in [8], 4.7 µM; in test [9] it was 0.713 µM; in test [10] it was greater than 100 µM.
On to `C=C1C(=O)O[C@H]2[C@H]1CC/C(COC(=O)CCCCC(=O)OC/C1=C/CC[C@@]3(C)O[C@H]3[C@H]3OC(=O)C(=C)[C@@H]3CC1)=C\CC[C@@]1(C)O[C@@H]21`, for which the GI50 is 11 µM in test [1]; 58.2 µM in test [2]; 1.37 µM in test [3]; 2830 nM in test [4]; 2.09 µM in test [5]; 3.15 µM in test [6]. The GI50 was 1450 nM in [7], 5.45 µM in test [8], 0.84 µM in test [9] and 3.01 µM in test [10]. For the same compound, the total growth inhibition concentration (TGI) was greater than 100 µM in test [1]; greater than 100 µM in test [2]; 3.36 µM in [3]; greater than 100 µM in test [4]; 3.94 µM in test [5]; 9.61 µM in test [6]. Besides, the concentration for total growth inhibition (TGI) in test [7] was 2.9 µM; in test [8], greater than 100 µM; in [9], 2.14 µM; in [10] it was greater than 100 µM.
Take `CC(=O)N1N=C2/C(=C/c3ccccc3)CC(C)CC2C1c1ccccc1` (stereo not given): the GI50 in [1] was 16.5 µM; in [2], 13.3 µM; in test [3], 15.6 µM; in [4] it was 11900 nM; in test [5] it was 8.86 µM; in [6] it was 16.6 µM. Besides, the GI50 in [7] was 13900 nM; in test [8] it was 12.5 µM; in [9], 14.9 µM; in test [10] it was 10.8 µM. Further, the TGI in [1] was found to be 30.7 µM; in test [2], 51.5 µM; in test [3] it was 33.1 µM; in test [4] it was 27.3 µM; in test [5], 21.2 µM; in [6], 32.6 µM. For the same compound, the total growth inhibition concentration (TGI) in test [7] is 29.9 µM; in test [8], 28.8 µM; in test [9], 32.6 µM; in test [10], 25.2 µM.
As for `C1=Cc2ccccc2Nc2ccccc21`, the GI50 in test [1] was greater than 100 µM; in test [2], greater than 100 µM; in test [3], greater than 100 µM; in [4], 50000 nM; in test [5] it was greater than 100 µM; in test [6] it was greater than 100 µM. The GI50 in test [7] is greater than 100000 nM; in test [8], greater than 100 µM; in test [9] it was greater than 100 µM; in test [10], greater than 100 µM. Further, the TGI in [1], in test [2], in test [3], in test [4], in test [5] and in test [6] was greater than 100 µM in each case. In addition, the concentration for total growth inhibition (TGI) in [7], in test [8], in test [9] and in test [10] was greater than 100 µM each time.
With `C[n+]1c(/C=C\c2ccc(Cl)cc2)ccc2ccccc21`, the GI50 in [1] is 4.02 µM; in test [2], 1.04 µM; in test [3], 4.78 µM; in test [4] it was 2450 nM; in test [5], 31.6 µM; in test [6] it was 29.2 µM. The GI50 in test [7] was 37400 nM; in [8], greater than 100 µM; in test [9] it was 7.34 µM; in test [10] it was 12 µM. Moreover, the concentration for total growth inhibition (TGI) is 91.3 µM in test [1]; greater than 100 µM in test [2]; 76.4 µM in test [3]; greater than 100 µM in test [4]; greater than 100 µM in [5]; greater than 100 µM in test [6]. For the same compound, the TGI in test [7] is greater than 100 µM; in [8], greater than 100 µM; in [9] it was 31.4 µM; in test [10] it was greater than 100 µM.
Take `CCOc1cccc(/C=N/NC(=O)c2ccc(Nc3ccnc(C(F)(F)F)c3)cc2)c1O`: the GI50 in test [1] was 4.65 µM; in test [2], 2.13 µM; in test [3], 1.88 µM; in [4] it was 1210 nM; in [5], 1.49 µM; in test [6], 2.23 µM. For the same compound, the GI50 in test [7] is 600 nM; in test [8], 3.62 µM; in test [9], 0.298 µM; in [10] it was 0.755 µM. The TGI is greater than 58 µM in test [1]; greater than 69.1 µM in test [2]; greater than 85 µM in test [3]; greater than 81.8 µM in test [4]; greater than 20.4 µM in test [5]; greater than 78.5 µM in test [6]. Also, the TGI was 24.5 µM in [7], greater than 63.2 µM in test [8], 28 µM in [9] and greater than 100 µM in test [10].
For `C[C@@H]1CN(C(=O)c2ccc(NC(=O)c3cc(O[C@H](C)c4c(Cl)ccc(F)c4Cl)c(N)nn3)cc2)C[C@H](C)N1`, the GI50 was 1 µM in test [1]; 3.03 µM in test [2]; 5.14 µM in test [3]; 5660 nM in [4]; 14.5 µM in test [5]; 2.5 µM in [6]. Moreover, the GI50 was 1460 nM in [7], 11.7 µM in test [8], 6.44 µM in test [9] and 8.84 µM in test [10]. For the same compound, the concentration for total growth inhibition (TGI) came out at 5.33 µM in test [1]; 15.8 µM in [2]; 16.5 µM in test [3]; 21.3 µM in test [4]; 29.1 µM in test [5]; 14.4 µM in test [6]. Further, the TGI came to 3.04 µM in [7], 31.1 µM in test [8], 19 µM in test [9] and 24.1 µM in test [10].
